In experiment [1] the target is T1, hM4 receptors (Homo sapiens, UniProt P08173).
T1 construct: expressed in transfected cells; host or cells: CHO cells
T1 sequence (P08173 1-479): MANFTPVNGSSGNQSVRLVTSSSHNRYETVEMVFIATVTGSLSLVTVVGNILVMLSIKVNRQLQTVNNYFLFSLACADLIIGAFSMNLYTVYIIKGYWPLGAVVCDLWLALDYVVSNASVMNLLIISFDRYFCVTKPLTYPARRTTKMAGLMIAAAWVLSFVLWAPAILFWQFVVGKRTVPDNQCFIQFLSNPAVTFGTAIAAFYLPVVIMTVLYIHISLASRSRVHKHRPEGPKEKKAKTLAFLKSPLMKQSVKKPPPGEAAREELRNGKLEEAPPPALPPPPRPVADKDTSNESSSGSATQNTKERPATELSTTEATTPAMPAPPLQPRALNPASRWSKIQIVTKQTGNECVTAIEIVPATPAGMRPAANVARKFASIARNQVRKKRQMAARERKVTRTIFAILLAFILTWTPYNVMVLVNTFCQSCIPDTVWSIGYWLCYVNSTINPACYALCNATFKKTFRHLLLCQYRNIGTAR
The experiment can be described thus: Human M4 PAM pERK assay. As to conditions: PAM mode. The class given is cell-based. In short, it runs like this:
(§1)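 CHO cells expressing hM4 or rM4 were serum-starved 4 h, then given compound (ten-point curve, 10 μM top, duplicate) with an EC20 of acetylcholine (10 nM final) for 5 min at 37° C. Phospho-ERK in lysates was detected by TR-FRET.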

The target of experiment [2] is T2, rM4 receptors (Rattus norvegicus, UniProt P08485).
T2 construct: expressed in transfected cells; host or cells: CHO cells
T2 sequence (P08485 1-478): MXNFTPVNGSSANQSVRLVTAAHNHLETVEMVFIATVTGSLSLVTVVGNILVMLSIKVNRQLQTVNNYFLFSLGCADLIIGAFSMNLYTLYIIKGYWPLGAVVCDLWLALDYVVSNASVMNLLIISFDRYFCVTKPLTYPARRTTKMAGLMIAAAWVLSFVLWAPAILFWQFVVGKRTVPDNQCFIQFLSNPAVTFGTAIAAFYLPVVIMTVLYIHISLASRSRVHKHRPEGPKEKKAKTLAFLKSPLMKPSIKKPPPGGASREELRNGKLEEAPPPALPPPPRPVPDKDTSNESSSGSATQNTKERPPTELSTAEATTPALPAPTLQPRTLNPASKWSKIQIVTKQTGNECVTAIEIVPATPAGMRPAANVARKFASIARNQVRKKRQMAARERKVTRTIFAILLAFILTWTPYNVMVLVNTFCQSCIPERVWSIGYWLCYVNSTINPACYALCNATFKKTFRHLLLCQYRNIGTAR
In words: Rat M4 PAM pERK assay. It is filed as cell-based. As to conditions: PAM mode. Summed up:
as §1

The target in experiment [3] is T3, human M4 receptor (Homo sapiens, UniProt P08173).
T3 construct: expressed in transfected cells
T3 sequence (P08173 1-479): T1 sequence (P08173 1-479)
The experiment can be described thus: M4 GTPγS PAM assay. As to conditions: CHO-K1 membranes expressing human M4, with EC20 acetylcholine (40 nM). It is filed as biochemical. On the procedure:
The M4 GTPγS PAM method was used. Membranes were prepared for GTPgS binding assays from CHO-K1 cells stably expressing human M4 receptor. Briefly, cells were grown in 5-layer cell culture flasks. Cells were washed with 50 mL of PBS and then dissociated with 0.05% trypsin. Dissociated cells were then collected by centrifugation at 650×g for 8 minutes at 4° C. Pellets were washed again in PBS by centrifugation and resuspended in 30 mL of 20 mM HEPES, 10 mM EDTA, pH 7.4. After sitting on ice for 30 min, membranes were collected by centrifugation at 50000×g for 15′ at 4° C., resuspended in 30 mL of 20 mM HEPES, 0.1 mM EDTA, pH 7.4 and collected again by centrifugation. Pellets were then washed twice by centrifugation in 30 mL of 20 mM HEPES, pH 7.4, and stored at −80° C. until the day of the assay. On the day of the assay, pellets were thawed on ice and resuspended in 1 mL of 20 mM HEPES, pH 7.4, 10 mM MgCl2, 100 mM NaCl using dounce homogenization. Membrane protein concentration is determined by BCA protein assay (Promega, Madison, WI) according to Promega guidelines.
On the day of the assay, serial dilutions of test PAM compounds were brought up in assay buffer (20 mM HEPES, 10 mM MgCl2, 100 mM NaCl) at 4× final assay concentration. […] of membrane homogenates (containing […] of membrane protein) were prepared in assay buffer supplemented with GDP at 4× final assay concentration (final assay concentration of GDP is 5 uM for M2 and 0.1 uM for M4) and dispensed into 96 well polypropylene, U-bottom Greiner plates. […] of vehicle or test PAM compound at 4× of final assay concentration diluted in the assay buffer were added to membrane and plates are incubated for 10-15 minutes at room temperature with gentle shaking. Then, […] of EC20 acetylcholine in assay buffer at 4× final assay concentration was added to assay plates (EC20 final assay concentrations was 40 nM for human M4).
Plates were then incubated, with shaking, for an additional 10-15 minutes. 25 mL of 0.4 nM ^35S-GTP (Perkin Elmer, Waltham, MA) in assay buffer was added to assay mixtures. The binding reaction is left on the shaker for 1 hour at room temperature. Membranes in assay reactions were then transferred to GF/C filter plates (Unifilter, Perkin Elmer) and washed three times using a FilterMate Harvester (Perkin Elmer) with cold assay buffer containing no GDP. Filter plates were then dried at 40° C. overnight followed by the addition of […] of Beta Plate Scintillation liquid. Plates are top and bottom sealed before being read on TopCount scintillation counter (Perkin Elmer, Waltham, MA).

As a reminder, the EC50 is the concentration that produces a half-maximal response. A lower EC50 goes with greater potency.

Each structure is given as a SMILES string. Bounds are passed on as bounds.

Turning to `Cc1coc(C(=O)N2Cc3c(C)c(Cl)c(=O)n(C)c3C2)n1` [Compound I-22], the concentration giving a half-maximal response (EC50) in experiment [1] was 100 to 500 nM; in experiment [2] it was over 2000 nM; in experiment [3], 500 to 2000 nM.

As to `Cc1c2c(n(C)c(=O)c1Cl)CN(C(=O)c1cn3c(n1)CCCC3)C2` [Compound I-24], the EC50 in experiment [1] was 500 to 2000 nM; in experiment [2], over 2000 nM; in experiment [3] it was over 2000 nM.

As for `Cc1c2c(n(C)c(=O)c1Cl)CN(C(=O)c1csc(C(F)(F)F)n1)C2` [Compound I-26], the half-maximal effective concentration (EC50) in experiment [1] was 100 to 500 nM; in experiment [2], over 2000 nM; in experiment [3] it was over 2000 nM.

Take `Cc1c2c(n(C)c(=O)c1Cl)CN(C(=O)c1cnc(CC3CC3)s1)C2` [Compound I-28]: the EC50 in experiment [1] is under 100 nM; in experiment [2], 500 to 2000 nM; in experiment [3] it was 100 to 500 nM.

For `Cc1c2c(n(C)c(=O)c1Cl)CN(C(=O)c1cnc(C(F)(F)F)s1)C2` [Compound I-29], the EC50 was under 100 nM in experiment [1], 500 to 2000 nM in experiment [2] and 500 to 2000 nM in experiment [3].

With `Cc1c2c(n(C)c(=O)c1Cl)CN(C(=O)c1cc3n(n1)CCCC3)C2` [Compound I-32], the figures for the EC50 in experiment [1], in experiment [2] and in experiment [3] were 100 to 500 nM, over 2000 nM and 500 to 2000 nM, respectively.

Consider `Cc1c2c(n(C)c(=O)c1Cl)CN(C(=O)c1cnc(C(F)F)s1)C2` [Compound I-36], for which the EC50 in experiment [1] was under 100 nM; in experiment [2] it was 500 to 2000 nM; in experiment [3], 500 to 2000 nM.

Turning to `Cc1c2c(n(C)c(=O)c1Cl)CN(C(=O)c1cccc(C(F)(F)F)c1)C2` [Compound I-40], the values for the EC50 in experiment [1], in experiment [2] and in experiment [3] were 500 to 2000 nM, over 2000 nM and over 2000 nM, respectively.

As for `Cc1c2c(n(C)c(=O)c1Cl)CN(C(=O)c1ccc(C(F)(F)F)cc1)C2` [Compound I-41], the results for the EC50 in experiment [1], in experiment [2] and in experiment [3] were 100 to 500 nM, 500 to 2000 nM and 100 to 500 nM, respectively.

As to `Cc1c2c(n(C)c(=O)c1Cl)CN(C(=O)c1ccnc(C(F)(F)F)c1)C2` [Compound I-42], the 50% effective concentration (EC50) in experiment [1] was 500 to 2000 nM; in experiment [2], over 2000 nM; in experiment [3] it was over 2000 nM.

Take `Cc1c2c(n(C)c(=O)c1Cl)CN(C(=O)c1ccc(C(F)(F)F)nc1)C2` [Compound I-44]: the figures for the EC50 in experiment [1], in experiment [2] and in experiment [3] were 100 to 500 nM, 500 to 2000 nM and under 100 nM, respectively.

Take `Cc1c2c(n(C)c(=O)c1Cl)CN(C(=O)c1ccc(C(F)(F)F)cn1)C2` [Compound I-45]: the EC50 in experiment [1] is 100 to 500 nM; in experiment [2], over 2000 nM; in experiment [3], over 2000 nM.

Regarding `Cc1c2c(n(C)c(=O)c1Cl)CN(C(=O)c1ccc3nc(C(F)(F)F)sc3c1)C2` [Compound I-49], the EC50 in experiment [1] lay in the range of 100 to 500 nM; in experiment [2], 500 to 2000 nM; in experiment [3], 500 to 2000 nM.

Take `Cc1c2c(n(C)c(=O)c1Cl)CN(C(=O)c1ccc3nc(C4CC4)sc3c1)C2` [Compound I-52, 3-Chloro-6-(2-cyclopropylbenzo[d]thiazole-6-carbonyl)-1,4-dimethyl-1,5,6,7-tetrahydro-2H-pyrrolo[3,4-b]pyridin-2-one]: the EC50 in experiment [1] lay in the range of 100 to 500 nM; in experiment [2] it was 100 to 500 nM; in experiment [3], 500 to 2000 nM.

As to `COC(C)(C)Cn1cc(C(=O)N2Cc3c(C)c(Cl)c(=O)n(C)c3C2)cn1` [Compound I-62], the values for the EC50 in experiment [1], in experiment [2] and in experiment [3] were over 2000 nM, over 2000 nM and 500 to 2000 nM, respectively.

For `COCCn1cc(C(=O)N2Cc3c(C)c(Cl)c(=O)n(C)c3C2)cn1` [Compound I-63], the EC50 in experiment [1], in experiment [2] and in experiment [3] was over 2000 nM each time.

On to `Cc1c2c(n(C)c(=O)c1Cl)CN(C(=O)c1cnc(CC3CC3(F)F)s1)C2` (stereo not drawn) [Compound I-66], for which the EC50 in experiment [1] is under 100 nM; in experiment [2], over 2000 nM; in experiment [3], 500 to 2000 nM.

As to `Cc1c2c(n(C)c(=O)c1Cl)CN(C(=O)c1cnc(C(F)(F)C3CC3)s1)C2` [Compound I-67, 3-Chloro-6-(2-(cyclopropyldifluoromethyl)thiazole-5-carbonyl)-1,4-dimethyl-1,5,6,7-tetrahydro-2H-pyrrolo[3,4-b]pyridin-2-one], the values for the EC50 in experiment [1], in experiment [2] and in experiment [3] were under 100 nM, 500 to 2000 nM and 100 to 500 nM, respectively.

Turning to `Cc1c2c(n(CC(F)(F)F)c(=O)c1Cl)CN(C(=O)c1cnc(CC3CC3)s1)C2` [Compound I-71], the EC50 was 500 to 2000 nM in experiment [1], over 2000 nM in experiment [2] and over 2000 nM in experiment [3].

As to `Cc1c2c(n(CC(F)(F)F)c(=O)c1Cl)CN(C(=O)c1ccc3nc(C4CC4)sc3c1)C2` [Compound I-72], the EC50 in experiment [1], in experiment [2] and in experiment [3] was 100 to 500 nM throughout.

As for `COc1c2c(n(C)c(=O)c1Cl)CN(C(=O)c1cnn(C(F)(F)F)c1)C2C` (stereo not drawn) [Compound I-73, 3-Chloro-4-methoxy-1,5-dimethyl-6-(1-(trifluoromethyl)-1H-pyrazole-4-carbonyl)-1,5,6,7-tetrahydro-2H-pyrrolo[3,4-b]pyridin-2-one], the EC50 in experiment [1] lay within 100 to 500 nM; in experiment [2], 500 to 2000 nM; in experiment [3], 100 to 500 nM.

As for `COc1cc(=O)n(C)c2c1C(C)N(C(=O)c1cnn(C(F)(F)F)c1)C2` (stereo not drawn) [Compound I-79, 4-Methoxy-1,5-dimethyl-6-(1-(trifluoromethyl)-1H-pyrazole-4-carbonyl)-1,5,6,7-tetrahydro-2H-pyrrolo[3,4-b]pyridin-2-one], the results for the EC50 in experiment [1], in experiment [2] and in experiment [3] were 500 to 2000 nM, over 2000 nM and 500 to 2000 nM, respectively.

Regarding `Cc1c(OC(F)F)c2c(n(C)c1=O)CN(C(=O)c1cnn(C(F)(F)F)c1)C2` [Compound I-89, 4-(Difluoromethoxy)-1,3-dimethyl-6-(1-(trifluoromethyl)-1H-pyrazole-4-carbonyl)-1,5,6,7-tetrahydro-2H-pyrrolo[3,4-b]pyridin-2-one], the EC50 in experiment [1] is 100 to 500 nM; in experiment [2] it was over 2000 nM; in experiment [3], 500 to 2000 nM.

As for `CSc1c2c(n(C)c(=O)c1C)CN(C(=O)c1cnn(C(F)(F)F)c1)C2` [Compound I-90, 1,3-Dimethyl-4-(methylthio)-6-(1-(trifluoromethyl)-1H-pyrazole-4-carbonyl)-1,5,6,7-tetrahydro-2H-pyrrolo[3,4-b]pyridin-2-one], the EC50 in experiment [1] was 100 to 500 nM; in experiment [2], over 2000 nM; in experiment [3], 500 to 2000 nM.

`Cc1cc(=O)n(C)c2c1[C@H](C)N(C(=O)c1ccc3nc(C4CC4)sc3c1)C2` [Compound I-102]: the EC50 in experiment [1], in experiment [2] and in experiment [3] was over 2000 nM throughout.

Source of the values: patent US12421242B2, “Substituted tetrahydropyrrolo-pyridinone compounds and their use in treating medical conditions” (Karuna Therapeutics, Inc., priority 2022, dated 2025).
